Columns and labels:
CCRF-CEM = test: NCI antiproliferative SRB assay, Leukemia panel; assay type: cell-based, Human; conditions: one dose 10 µM
MOLT-4 = test: NCI antiproliferative SRB assay, Leukemia panel; assay type: cell-based, Human; conditions: one dose 10 µM
HCT-15 = test: NCI antiproliferative SRB assay, Colon Cancer panel; assay type: cell-based, Human; conditions: one dose 10 µM
HT29 = test: as above; assay type: cell-based, Human; conditions: one dose 10 µM
SF-539 = test: NCI antiproliferative SRB assay, CNS Cancer panel; assay type: cell-based, Human; conditions: one dose 10 µM
M14 = test: NCI antiproliferative SRB assay, Melanoma panel; assay type: cell-based, Human; conditions: one dose 10 µM
UACC-62 = test: NCI antiproliferative SRB assay, Melanoma panel; assay type: cell-based, Human; conditions: one dose 10 µM
OVCAR-5 = test: NCI antiproliferative SRB assay, Ovarian Cancer panel; assay type: cell-based, Human; conditions: one dose 10 µM
SN 12C = test: NCI antiproliferative SRB assay, Renal Cancer panel; assay type: cell-based, Human; conditions: one dose 10 µM
TK-10 = test: as above; assay type: cell-based, Human; conditions: one dose 10 µM
MDA-MB-231 = test: NCI antiproliferative SRB assay, Breast Cancer panel; assay type: cell-based; conditions: one dose 10 µM
T-47D = test: as above; assay type: cell-based, Human; conditions: one dose 10 µM
MDA-MB-468 = test: as above; assay type: cell-based, Human; conditions: MDA-MB-468; one dose 10 µM
Experimental: The antiproliferative activity of tested compounds was done against five dozen (60) cancer cell lines derived from nine different panels. All of the compounds were evaluated for antiproliferative activity in a single dose at 10 µM. Growth percent (GP) and percent growth inhibition (% GI) were used to calculate antiproliferative activity. […] The antiproliferative results of five-dose assay were calculated as three dose related parameters like, 50% growth inhibition (GI50), 50% lethal concentration (LC50), and total growth inhibition TGI [43, 44, 45, 46, 47].
Human tumor cell lines were grown in RPMI 1640 medium containing 5% fetal bovine serum and 2 mM L-glutamine. For a typical screening experiment, cells were inoculated into 96-well microtiter plates in 100 µL at plating densities ranging from 5000 to 40,000 cells/well, depending on the doubling time of individual cell lines. Two plates of each cell line were fixed in situ with trichloroacetic acid (TCA) after 24 h to represent a cell population measurement for each cell line at the time of drug addition (Ti). The experimental drugs were frozen after being solubilized in dimethyl sulfoxide at 400-fold the desired final maximum test concentration. An aliquot of frozen concentrate was thawed and diluted to twice the desired final maximum test concentration with medium containing 50 µg/mL gentamicin at the time of drug addition. Additional four, 10-fold, or ½ log serial dilutions serial dilutions were performed to provide a total of five drug concentrations plus the control. Aliquots of 100 µL of these different drug dilutions were added to the appropriate microtiter wells already containing 100 µL of medium, resulting in the required final drug concentrations. Following drug addition, the plates are incubated for an additional 48 h at 37 °C, 5% CO2, 95% air, and 100% relative humidity. For adherent cells, the assay is terminated by the addition of cold TCA. Cells are fixed in situ by the gentle addition of 50 µL of cold 50% (w/v) TCA (final concentration, 10% TCA) and incubated for 60 min at 4 °C. The supernatant is discarded, and the plates are washed five times with tap water and air dried. Sulforhodamine B (SRB) solution (100 µL) at 0.4% (w/v) in 1% acetic acid was added to each well, and plates were incubated for 10 min at room temperature. After staining, unbound dye was removed by washing five times with 1% acetic acid and the plates were air dried. Bound stain was subsequently solubilized with 10 mM trizma base, and the absorbance was read on an automated plate reader at a wavelength of 515 nm. For suspension cells, the methodology was the same except that the assay was terminated by fixing settled cells at the bottom of the wells by gently adding 50 µL of 80% TCA (final concentration, 16% TCA). […]
Antiproliferative activity
The anticancer screening was carried ou t as per the NCI US protocol. Using the seven absorbance measurements (time zero, (Ti), control growth, (C), and test growth in the presence of drug at the five concentration levels (Tf)), the percentage growth was calculated at each of the drug concentrations level as [( Tf−Ti × 100 for concentrations for which Tf ≥ Ti, and Tf−Ti × 100 for […]
concentrations for which Tf < Ti.
Three-dose response parameters (GI50, TGI, and LC50) were calculated for each of the experimental agents. Growth inhibition of 50% (GI50) was calculated from 100 × Tf−Ti = 50, , which was […]
the drug concentration resulting in a 50% reduction in the net protein increase (as measured by sulforhodamine B, SRB staining) in control cells during the drug incubation. The total growth inhibition (TGI) was calculated from Tf = Ti, which was the drug concentration resulting in total growth inhibition and signified the cytostatic effect. The LC50 was calculated from 100 × Tf−Ti = −50, , indicating a net loss […]
of cells following treatment which indicated the concentration of drug resulting in a 50% reduction in the […]

[1] = system: Non-Small Cell Lung Cancer cell line panel; test: NCI antiproliferative assay, panel summary; assay type: cell-based, Human; conditions: 10 µM
Melanoma cell line panel = test: NCI antiproliferative assay, panel summary; assay type: cell-based, Human; conditions: 10 µM
[2] = system: Prostate Cancer cell line panel; test: NCI antiproliferative assay, panel summary; assay type: cell-based, Human; conditions: 10 µM

COc1ccc(/C=C/c2cc(/C=C/c3ccc(OC)c(O)c3)n(-c3cccc(Cl)c3)c(=S)n2)cc1O [3a]
%GI (CCRF-CEM): 46.57% | GP (growth percent) (CCRF-CEM): 53.43 | %GI (MOLT-4): 53.78% | GP (growth percent) (MOLT-4): 46.22 | %GI (HCT-15): 6.07% | GP (growth percent) (HCT-15): 93.93 | %GI (HT29): 53.43% | GP (growth percent) (HT29): 46.57 | %GI (SF-539): 6.89% | GP (growth percent) (SF-539): 93.11 | %GI (M14): 5.96% | GP (growth percent) (M14): 94.04 | %GI (UACC-62): 17.81% | GP (growth percent) (UACC-62): 82.19 | %GI (OVCAR-5): −12.92% | GP (growth percent) (OVCAR-5): 112.92 | %GI (SN 12C): 7.39% | GP (growth percent) (SN 12C): 92.61 | %GI (TK-10): −12.60% | GP (growth percent) (TK-10): 112.60 | %GI (MDA-MB-231): 31.75% | GP (growth percent) (MDA-MB-231): 68.25 | %GI (T-47D): 36.18% | GP (growth percent) (T-47D): 63.82 | %GI (MDA-MB-468): 16.19% | GP (growth percent) (MDA-MB-468): 83.81 | Mean % GI [1]: 17.22% | Mean % GI (Melanoma cell line panel): 17.21% | Mean % GI [2]: 14.98%

Reference: article PMC8398451, “Molecular Engineering of Curcumin, an Active Constituent of Curcuma longa L. (Turmeric) of the Family Zingiberaceae with Improved Antiproliferative Activity” (Plants, 2021)
